According to patent publication US12358954B2, “Capsid-modified rAAV vector compositions and methods therefor” (priority 2012, dated 2025):

Key:
[1] = tested on: primary human dendritic cells; assay: FACS analyses of markers of maturation (CD83, CD86) of primary human dendritic cells; format: cell-based
Description: Cells, Antibodies and Chemicals. HeLa cells were obtained from the American Type Culture Collection (Rockville, Md., USA) and maintained as monolayer cultures in Iscove's-modified Dulbecco's medium (IMDM, Invitrogen, Inc., Carlsbad, Calif., USA) supplemented with 10% newborn calf serum (NCS) (Lonza, Inc., Basel, SWITZERLAND) and antibiotics. Leukapheresis-derived PBMCs were resuspended in serum-free AIM-V medium (Lonza, Inc.) and semi-adherent cell fractions were incubated in serum-free AIM-V medium supplemented with recombinant human IL-4 (500 U/mL) and GM-CSF (800 U/mL) (R&D Systems, MN, USA). Cells were treated with NF-κB modulators ([…]), and cytokines cocktail including 10 ng/mL TNF-α, 10 ng/mL IL-1, 10 ng/mL IL-6, […] (R&D Systems) for 20 hr. Cells were harvested, characterized to ensure they met the typical phenotype of mature DCs (CD83, RPE, murine IgG1, CD86, FITC, murine IgG1; Invitrogen, Inc.). All primary and secondary antibodies were purchased from Cell Signaling Technology, Inc. (Danvers, Mass., USA) or Santa Cruz Biotechnology, Inc (Santa Cruz, Calif., USA). NF-kB activators [Etoposide (VP16), Aphidicolin, Hydroxyurea (HU)] and NF-kB inhibitors [Bay11-7082 (Bay11), Pyrrolidine dithiocarbamate (PDTC)] were purchased from Sigma-Aldrich Co. (St. Louis, Mo., USA). These compounds were re-suspended in either DMSO (Sigma-Aldrich Co.) or in sterile, DNAase-, RNAase-free water (Invitrogen, Inc.) as per the manufacturer's instructions.

[2] = tested on: non-canonical NF-κB pathway (p100, p52); assay: Western blot of NF-κB pathway components in HeLa cells; format: cell-based, human
Text: Western Blot Analyses. Homogenized lysates of the cell pellets from ˜2×10^6 HeLa cells or DCs, mock or pre-treated with the optimal concentration of NF-κB activators or inhibitors were used for sample preparation. Whole cell proteins were isolated using the RIPA lysis buffer (Sigma-Aldrich Co.) and cytoplasmic and nuclear proteins were extracted using a commercial kit (NE-PER Extraction Reagent Kit, Pierce Biotech, Rockford, Ill., USA) as per the manufacturer's protocol in the presence of a protease inhibitor cocktail (Halt™ Protease Inhibitor Cocktail Kit, Pierce Biotech). The protein extracts were boiled for 5 min under reducing conditions [SDS-sample buffer containing 62.5 mM Tris-HCl (pH 6.8 at 25° C.), 2% wt./vol. SDS, 10% glycerol, 50 mM DTT, 0.01% wt./vol. bromo-phenol blue (Cell Signaling Technology, Inc.)] and stored at −86° C. until further analysis. Equal volumes of samples were run on 4-15% SDS-PAGE (Bio-Rad, Hercules, Calif., USA). […] The intensity of the protein bands was measured with Adobe Photoshop CS3 Software® and normalized to proteins levels from the housekeeping gene products used as loading controls.

HeLa cells = assay: AAV-EGFP transduction of HeLa cells in the presence of NF-κB modulators; format: cell-based, human
Description: Recombinant AAV Vector Transduction Assays in Vitro. Optimal concentration of NF-κB-modulating compounds was determined by a cell viability assay with tenfold-dilutions from the IC50 or were used as described previously (Wu and Miyamoto, 2008; Kumar et al., 2008). VP16 or Bay11 (10 or 5 μM, final concentration), and PDTC (50 or 25 μM final concentration) were used either alone or in activator/inhibitor combinations. For transduction experiments, approximately 1×10^5 HeLa cells were either pre-treated with these compounds 24 hrs prior to vector infection. Cells were transduced with 500 or 2,000 vector genomes (vgs) per cell of recombinant WT-AAV or TM-AAV vectors encoding the EGFP transgene as described previously (Markusic et al., 2010). After 7 days of culture, primary human dendritic cells were transduced with AAV vectors at 2000 vgs/cell and incubated for 48 hrs. Transgene expression was assessed as total area of green fluorescence (pixel^2) per visual field (mean±SD), or by flow cytometry. Analysis of variance (ANOVA) was used to compare between test results and the control and they were determined to be statistically significant.

[3] = Mature DCs + AAV + Cytokines + modulator

## Cc1ccc(S(=O)(=O)/C=C/C#N)cc1 [Bay11, Bay11-7082]
[1]
  maturation of DCs (CD83, CD86): inhibition of cytokine-mediated maturation
[1]; [3]
  Geometric means of levels of expression in cells expressing CD83: 16.88
  Geometric means of levels of expression in cells expressing CD86: 10.11
[2]
  AAV-induced increase of p100 and p52: ablated
HeLa cells; HeLa, scAAV-EGFP
  AAV vector-mediated EGFP expression, fold augmentation: totally ablated
HeLa cells; activator/inhibitor combination
  VP16-mediated augmented transgene expression: completely ablated
